molecular target: T1, Nav1.7 (or SCN9A) channel (Homo sapiens, UniProt Q15858); assay: Nav1.7 (hSCN9A) electrophysiology assay, PatchXpress platform; type: cell-based; conditions: estimated IC50 from single point electrophysiology data, HEK cells stably expressing hSCN9A, held at V1/2 of inactivation, read-out: Nav1.7 EIC50
T1 construct: expressed in transfected cells
Method: The ability of the compounds of formula (I) to block the Nav1.7 (or SCN9A) channel were measured using the assay described below.
Human Embryonic Kidney (HEK) cells were transfected with an hSCN9A construct using lipofectamine reagent (Invitrogen), using standard techniques. Cells stably expressing the hSCN9A constructs were identified by their resistance to G-418 (400 μg/ml). Clones were screened for expression using the whole-cell voltage-clamp technique.
HEK cells stably transfected with hSCN9A were maintained in DMEM medium supplemented with 10% heat-inactivated fetal bovine serum and 400 μg/ml G-418 in an incubator at 37° C. with a humidified atmosphere of 10% CO2. For HTS, cells were harvested from flasks by trypsinization and replated in an appropriate multi-well plate (typically 96 or 384 wells/plate) such that confluence would be achieved within 24 hours of plating. For electrophysiological studies, cells were removed from the culture flask by brief trypsinization and re-plated at low density onto glass cover slips. Cells were typically used for electrophysiological experiments within 24 to 72 hours after plating.
Cover slips containing HEK cells expressing hSCN9A were placed in a bath on the stage of an inverted microscope and perfused (approximately 1 ml/minutes) with extracellular solution of the following composition: 138 mM NaCl, 2 mM CaCl2, 5.4 mM KCl, 1 mM MgCl2, 10 mM glucose, and 10 mM HEPES, pH 7.4, with NaOH. […] The osmolarity of the extracellular and intracellular solutions was 300 mOsm/kg and 295 mOsm/kg, respectively. All recordings were made at room temperature (22-24° C.) using AXOPATCH 200B amplifiers and PCLAMP software (Axon Instruments, Burlingame, Calif.).
hSCN9A currents in HEK cells were measured using the whole-cell configuration of the patch-clamp technique (Hamill et al., 1981). Uncompensated series resistance was typically 2 to 5 mega ohms and >85% series resistance compensation was routinely achieved. […] Current records were acquired at 20 to 50 KHz and filtered at 5 to 10 KHz.
HEK cells stably transfected with hSCN9A were viewed under Hoffman contrast optics and placed in front of an array of flow pipes emitting either control or compound-containing extracellular solutions. All compounds were dissolved in dimethyl sulfoxide to make 10 mM stock solutions, which were then diluted into extracellular solution to attain the final concentrations desired. […] The voltage-dependence of inactivation was determined by applying a series of depolarizing prepulses (8 sec long in 10 mV increments) from a negative holding potential. The voltage was then immediately stepped to 0 mV to assess the magnitude of the sodium current. Currents elicited at 0 mV were plotted as a function of prepulse potential to allow estimation of the voltage at which 50% of the channels were inactivated (midpoint of inactivation or V1/2). Compounds were tested for their ability to inhibit hSCN9A sodium channels by activating the channel with a 20 msec voltage step to 0 mV following an 8 second conditioning prepulse to the empirically determined V1/2. Compound effect (% inhibition) was determined by difference in current amplitude before and after application of test compounds. […] Inhibition values <20% and >80% were excluded from the calculation.
Electrophysiological assays were conducted with PatchXpress 7000 hardware and associated software (Molecular Devices Corp). All assay buffers and solutions were identical to those used in conventional whole-cell voltage clamp experiments described above. hSCN9A cells were grown as above to 50%-80% confluency and harvested by trypsinization. Trypsinized cells were washed and resuspended in extracellular buffer at a concentration of 1×10^6 cells/ml. The onboard liquid handling facility of the PatchXpress was used for dispensing cells and application of test compounds.

T1 sequence (Q15858 whole entry): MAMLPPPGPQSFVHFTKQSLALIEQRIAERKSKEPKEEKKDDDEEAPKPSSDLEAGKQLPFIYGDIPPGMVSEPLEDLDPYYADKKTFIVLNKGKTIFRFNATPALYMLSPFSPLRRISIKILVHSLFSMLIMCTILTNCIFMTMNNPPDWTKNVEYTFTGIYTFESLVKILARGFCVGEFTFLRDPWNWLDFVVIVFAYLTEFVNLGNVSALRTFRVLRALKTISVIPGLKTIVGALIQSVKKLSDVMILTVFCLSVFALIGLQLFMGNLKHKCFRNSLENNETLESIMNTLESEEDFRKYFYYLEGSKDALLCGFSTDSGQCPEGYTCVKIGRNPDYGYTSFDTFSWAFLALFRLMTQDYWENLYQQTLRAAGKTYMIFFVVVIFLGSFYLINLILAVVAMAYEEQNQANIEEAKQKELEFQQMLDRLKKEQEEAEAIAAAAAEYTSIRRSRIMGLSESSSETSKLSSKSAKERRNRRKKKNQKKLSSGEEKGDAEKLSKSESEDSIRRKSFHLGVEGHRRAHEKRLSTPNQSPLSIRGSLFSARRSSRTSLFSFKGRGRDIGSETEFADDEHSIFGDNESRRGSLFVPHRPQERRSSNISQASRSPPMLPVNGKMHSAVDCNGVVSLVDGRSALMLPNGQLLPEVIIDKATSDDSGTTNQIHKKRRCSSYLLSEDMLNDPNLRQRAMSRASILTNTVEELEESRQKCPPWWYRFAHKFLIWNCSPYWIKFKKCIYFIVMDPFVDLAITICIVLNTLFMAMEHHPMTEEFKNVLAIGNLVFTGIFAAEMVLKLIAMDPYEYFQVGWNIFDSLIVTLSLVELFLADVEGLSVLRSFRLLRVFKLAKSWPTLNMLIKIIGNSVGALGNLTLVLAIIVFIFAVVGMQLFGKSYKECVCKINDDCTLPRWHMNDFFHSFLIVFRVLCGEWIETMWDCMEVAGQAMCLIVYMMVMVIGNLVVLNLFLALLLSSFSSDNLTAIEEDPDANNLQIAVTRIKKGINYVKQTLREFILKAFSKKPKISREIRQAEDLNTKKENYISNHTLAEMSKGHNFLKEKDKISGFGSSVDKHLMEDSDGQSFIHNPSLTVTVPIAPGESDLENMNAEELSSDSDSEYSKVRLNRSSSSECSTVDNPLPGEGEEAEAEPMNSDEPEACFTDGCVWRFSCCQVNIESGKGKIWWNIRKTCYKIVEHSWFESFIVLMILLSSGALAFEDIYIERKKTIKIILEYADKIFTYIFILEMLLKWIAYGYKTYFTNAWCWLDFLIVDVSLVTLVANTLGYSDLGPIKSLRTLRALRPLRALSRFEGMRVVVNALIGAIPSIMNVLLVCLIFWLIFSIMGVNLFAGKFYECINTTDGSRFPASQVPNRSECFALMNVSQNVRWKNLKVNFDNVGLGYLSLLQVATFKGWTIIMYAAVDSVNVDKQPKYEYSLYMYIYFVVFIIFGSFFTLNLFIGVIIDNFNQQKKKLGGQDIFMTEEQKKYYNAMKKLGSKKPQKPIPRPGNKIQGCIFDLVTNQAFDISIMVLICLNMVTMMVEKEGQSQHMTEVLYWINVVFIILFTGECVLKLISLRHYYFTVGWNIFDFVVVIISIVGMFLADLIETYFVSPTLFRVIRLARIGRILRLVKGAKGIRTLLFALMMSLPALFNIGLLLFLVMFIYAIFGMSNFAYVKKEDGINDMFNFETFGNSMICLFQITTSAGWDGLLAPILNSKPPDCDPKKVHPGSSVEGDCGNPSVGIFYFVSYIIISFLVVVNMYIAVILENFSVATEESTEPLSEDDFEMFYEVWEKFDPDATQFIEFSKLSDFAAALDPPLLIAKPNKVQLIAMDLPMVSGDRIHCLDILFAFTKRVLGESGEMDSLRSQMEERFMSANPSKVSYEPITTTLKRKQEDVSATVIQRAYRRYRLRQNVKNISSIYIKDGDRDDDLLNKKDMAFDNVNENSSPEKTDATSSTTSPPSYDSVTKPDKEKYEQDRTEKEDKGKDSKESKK

`CS(=O)(=O)NC(=O)c1cc(Cl)c(OCc2ccccc2Cl)cc1F` [Example 78, 5-chloro-4-[(2-chlorobenzyl)oxy]-2-fluoro-N-(methylsulfonyl)benzamide] and `CS(=O)(=O)NC(=O)c1cc(Cl)c(OCc2cccc(Cl)c2)cc1F` [Example 86, 5-chloro-4-[(3-chlorobenzyl)oxy]-2-fluoro-N-(methylsulfonyl)benzamide] are within 1.5-fold of each other in IC50: 390 nM for the first, 580 nM for the second.

`CS(=O)(=O)NC(=O)c1ccc(OCc2cccc(C#N)c2)c(Cl)c1` [Example 80, 3-chloro-4-[(3-cyanobenzyl)oxy]-N-(methylsulfonyl)benzamide] and `CS(=O)(=O)NC(=O)c1ccc(OCc2cccc(Cl)c2)cc1` [Example 91, 4-[(3-chlorobenzyl)oxy]-N-(methylsulfonyl)benzamide] cannot be ordered by IC50: > 3000 nM for the first, 3500 nM for the second.

`COc1cccc(COc2ccc(C(=O)NS(C)(=O)=O)cc2)c1` [Example 82, 4-[(3-methoxybenzyl)oxy]-N-(methylsulfonyl)benzamide] and `COc1ccc(COc2ccc(C(=O)NS(C)(=O)=O)cc2)cc1` [Example 89, 4-[(4-methoxybenzyl)oxy]-N-(methylsulfonyl)benzamide] cannot be ordered by IC50: 5500 nM for the first, > 3000 nM for the second.

`CS(=O)(=O)NC(=O)c1cc(Cl)c(OCc2ccc(-c3ccccc3)cc2)cc1F` [Example 83, 4-(biphenyl-4-ylmethoxy)-5-chloro-2-fluoro-N-(methylsulfonyl)benzamide] and `CS(=O)(=O)NC(=O)c1cc(Cl)c(OCc2ccccc2-c2ccccc2)cc1F` [Example 87, 4-(biphenyl-2-ylmethoxy)-5-chloro-2-fluoro-N-(methylsulfonyl)benzamide] are within 1.5-fold of each other in IC50: 620 nM for the first, 640 nM for the second.

First: CS(=O)(=O)NC(=O)c1cc(Cl)c(OCc2ccc(Cl)cc2)cc1F [Example 84, 5-chloro-4-[(4-chlorobenzyl)oxy]-2-fluoro-N-(methylsulfonyl)benzamide]
Second: Cc1ccc(Cl)cc1OCc1cc(F)c(C(=O)NS(C)(=O)=O)cc1F [Example 100, 4-[(5-chloro-2-methylphenoxy)methyl]-2,5-difluoro-N-(methylsulfonyl)benzamide]
The IC50 of the first is 17-fold higher: 6500 nM for the first, 390 nM for the second. The second is the more potent here.

Compared with `CS(=O)(=O)NC(=O)c1ccc(OCc2ccc(-c3ccccc3)cc2)cc1` [Example 85, 4-(biphenyl-4-ylmethoxy)-N-(methylsulfonyl)benzamide], `CS(=O)(=O)NC(=O)c1ccc(OCc2ccccc2-c2ccccc2)cc1` [Example 94, 4-(biphenyl-2-ylmethoxy)-N-(methylsulfonyl)benzamide] is 9.6-fold higher in IC50: 450 nM for the first, 4300 nM for the second.

Going from `CS(=O)(=O)NC(=O)c1ccc(OCc2ccc(Cl)cc2)cc1` [Example 88, 4-[(4-chlorobenzyl)oxy]-N-(methylsulfonyl)benzamide] to `CS(=O)(=O)NC(=O)c1ccc(OCc2cccc(OC(F)(F)F)c2)cc1` [Example 92, N-(methylsulfonyl)-4-{[3-(trifluoromethoxy)benzyl]oxy}benzamide], the IC50 falls from 6100 nM to 590 nM (10-fold). The second is the more potent here.

`CS(=O)(=O)NC(=O)c1ccc(OCc2ccc(-n3cccn3)cc2)c(Cl)c1` [Example 90, 3-chloro-N-(methylsulfonyl)-4-{[4-(1H-pyrazol-1-yl)benzyl]oxy}benzamide] and `CS(=O)(=O)NC(=O)c1ccc(OCc2ccccc2-c2ccccc2)c(C#N)c1` [Example 93, 4-(biphenyl-2-ylmethoxy)-3-cyano-N-(methylsulfonyl)benzamide] cannot be ordered by IC50: > 3000 nM for the first, > 3000 nM for the second.

Compared with `COc1ccc(OCc2cc(F)c(C(=O)NS(C)(=O)=O)cc2F)cc1F` [Example 97, 2,5-difluoro-4-[(3-fluoro-4-methoxyphenoxy)methyl]-N-(methylsulfonyl)benzamide], `CS(=O)(=O)NC(=O)c1cc(F)c(COc2cccc(F)c2)cc1F` [Example 116, 2,5-difluoro-4-[(3-fluorophenoxy)methyl]-N-(methylsulfonyl)benzamide] is 2.6-fold lower in IC50: 1500 nM for the first, 570 nM for the second.

`COc1cc(Cl)cc(OCc2cc(F)c(C(=O)NS(C)(=O)=O)cc2F)c1` [Example 98, 4-[(3-chloro-5-methoxyphenoxy)methyl]-2,5-difluoro-N-(methylsulfonyl)benzamide] and `Cc1cc(Cl)cc(OCc2cc(F)c(C(=O)NS(C)(=O)=O)cc2F)c1` [Example 105, 4-[(3-chloro-5-methylphenoxy)methyl]-2,5-difluoro-N-(methylsulfonyl)benzamide] are within 1.5-fold of each other in IC50: 140 nM for the first, 100 nM for the second.

First: CS(=O)(=O)NC(=O)c1cc(F)c(COc2ccc3cc(C#N)ccc3c2)cc1F [Example 99, 4-{[(6-cyano-2-naphthyl)oxy]methyl}-2,5-difluoro-N-(methylsulfonyl)benzamide]
Second: CS(=O)(=O)NC(=O)c1cc(F)c(COc2ccc(C#N)cc2F)cc1F [Example 104, 4-[(4-cyano-2-fluorophenoxy)methyl]-2,5-difluoro-N-(methylsulfonyl)benzamide]
The IC50 of the first is 6.2-fold lower: 820 nM for the first, 5100 nM for the second.

Going from `CS(=O)(=O)NC(=O)c1cc(F)c(COc2ccc(C#N)c(C(F)(F)F)c2)cc1F` [Example 101, 4-{[4-cyano-3-(trifluoromethyl)phenoxy]methyl}-2,5-difluoro-N-(methylsulfonyl)benzamide] to `CS(=O)(=O)NC(=O)c1cc(F)c(COc2ccc(C#N)c(C#N)c2)cc1F` [Example 103, 4-[(3,4-dicyanophenoxy)methyl]-2,5-difluoro-N-(methylsulfonyl)benzamide], the IC50 rises from 1900 nM to 6100 nM (3.2-fold).

Going from `Cc1c(OCc2cc(F)c(C(=O)NS(C)(=O)=O)cc2F)cccc1-n1cccn1` [Example 102, 2,5-difluoro-4-{[2-methyl-3-(1H-pyrazol-1-yl)phenoxy]methyl}-N-(methylsulfonyl)benzamide] to `CS(=O)(=O)NC(=O)c1cc(F)c(COc2ccccc2F)cc1F` [Example 110, 2,5-difluoro-4-[(2-fluorophenoxy)methyl]-N-(methylsulfonyl)benzamide], the IC50 falls from > 3000 nM to 2200 nM.

`CN1CCC(c2cccc(OCc3cc(F)c(C(=O)NS(C)(=O)=O)cc3F)c2)CC1` [Example 106, 2,5-difluoro-4-{[3-(1-methylpiperidin-4-yl)phenoxy]methyl}-N-(methylsulfonyl)benzamide] and `CN1CCN(c2cccc(OCc3cc(F)c(C(=O)NS(C)(=O)=O)cc3F)c2)CC1` [Example 113, 2,5-difluoro-4-{[3-(4-methylpiperazin-1-yl)phenoxy]methyl}-N-(methylsulfonyl)benzamide] are within 1.5-fold of each other in IC50: 9200 nM for the first, 11000 nM for the second.

Compared with `CC(C)c1cccc(OCc2cc(F)c(C(=O)NS(C)(=O)=O)cc2F)c1` [Example 107, 2,5-difluoro-4-[(3-isopropylphenoxy)methyl]-N-(methylsulfonyl)benzamide], `CS(=O)(=O)NC(=O)c1cc(F)c(COc2cccc(C(F)(F)F)c2)cc1F` [Example 109, 2,5-difluoro-N-(methylsulfonyl)-4-{[3-(trifluoromethyl)phenoxy]methyl}benzamide] is 2.4-fold lower in IC50: 330 nM for the first, 140 nM for the second.

Going from `CS(=O)(=O)NC(=O)c1cc(F)c(COc2cc(F)cc(C(F)(F)F)c2)cc1F` [Example 108, 2,5-difluoro-4-{[3-fluoro-5-(trifluoromethyl)phenoxy]methyl}-N-(methylsulfonyl)benzamide] to `CS(=O)(=O)NC(=O)c1cc(F)c(COc2cccc(F)c2F)cc1F` [Example 111, 4-[(2,3-difluorophenoxy)methyl]-2,5-difluoro-N-(methylsulfonyl)benzamide], the IC50 rises from 87 nM to > 1000 nM.

First: CCc1ccccc1OCc1cc(F)c(C(=O)NS(C)(=O)=O)cc1F [Example 112, 4-[(2-ethylphenoxy)methyl]-2,5-difluoro-N-(methylsulfonyl)benzamide]
Second: Cc1ccc(OCc2cc(F)c(C(=O)NS(C)(=O)=O)cc2F)cc1 [Example 115, 2,5-difluoro-4-[(4-methylphenoxy)methyl]-N-(methylsulfonyl)benzamide]
The IC50 of the first is 2.3-fold higher: 1400 nM for the first, 620 nM for the second. The second is the more potent here.

Source: US9096500B2, “Acyl sulfonamide compounds” (Pfizer Limited, priority 2010, dated 2015)
